Experimental findings from US20240150377A1, “MODULATORS OF CYSTIC FIBROSIS TRANSMEMBRANE CONDUCTANCE REGULATOR” (VERTEX PHARMACEUTICALS INCORPORATED, priority 2020, published 2024) are described below.

In this experiment the target is T1, CFTR (Homo sapiens, UniProt P13569, DEL508-508).
T1 construct: endogenous in cells; host or cells: primary human bronchial epithelial cells from CF subjects (F508del/MF-HBE), differentiated at air-liquid interface
Briefly: HBE assay: Ussing chamber assay of CFTR-mediated short-circuit currents. It counts as cell-based. The method, boiled down: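 CFTR-mediated Isc (μA/cm²) equals the peak response to apical 20 μM forskolin minus the residual after a 20 μM each BPO/GlyH-101/CFTR inhibitor 172 cocktail, recorded in Ussing chambers at Vhold 0 mV, 37 °C, pH 7.4, with 30 μM apical amiloride. Cells were F508del/MF HBE cultures preincubated 18-24 h with corrector (concentration range or 10 μM) plus 1 μM ivacaftor in 20% human serum.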

Where [1] appears, read: HBE assay, read-out: HBE Max activity (%).
Where [2] appears, read: HBE assay, 10 μM, read-out: HBE Activity at 10 μM (%).
The mark [3] stands for this setting: Table 11, read-out: HBE Max Activity (%).
Where [4] appears, read: Table 12, read-out: HBE Max Activity (%).
Setting [5] is: Table 13, read-out: HBE Max Activity (%).
Where [6] appears, read: Table 12, at 10 μM, read-out: HBE Activity at 10 μM (%).
[7] abbreviates: Table 10, read-out: HBE Max activity (%).
[8] abbreviates: Table 13, at 10 μM, read-out: HBE Activity at 10 μM (%).

Like-named read-outs stand apart in the source and are kept apart here.

T1 sequence (P13569 with tags, fused parts or gaps DEL508-508): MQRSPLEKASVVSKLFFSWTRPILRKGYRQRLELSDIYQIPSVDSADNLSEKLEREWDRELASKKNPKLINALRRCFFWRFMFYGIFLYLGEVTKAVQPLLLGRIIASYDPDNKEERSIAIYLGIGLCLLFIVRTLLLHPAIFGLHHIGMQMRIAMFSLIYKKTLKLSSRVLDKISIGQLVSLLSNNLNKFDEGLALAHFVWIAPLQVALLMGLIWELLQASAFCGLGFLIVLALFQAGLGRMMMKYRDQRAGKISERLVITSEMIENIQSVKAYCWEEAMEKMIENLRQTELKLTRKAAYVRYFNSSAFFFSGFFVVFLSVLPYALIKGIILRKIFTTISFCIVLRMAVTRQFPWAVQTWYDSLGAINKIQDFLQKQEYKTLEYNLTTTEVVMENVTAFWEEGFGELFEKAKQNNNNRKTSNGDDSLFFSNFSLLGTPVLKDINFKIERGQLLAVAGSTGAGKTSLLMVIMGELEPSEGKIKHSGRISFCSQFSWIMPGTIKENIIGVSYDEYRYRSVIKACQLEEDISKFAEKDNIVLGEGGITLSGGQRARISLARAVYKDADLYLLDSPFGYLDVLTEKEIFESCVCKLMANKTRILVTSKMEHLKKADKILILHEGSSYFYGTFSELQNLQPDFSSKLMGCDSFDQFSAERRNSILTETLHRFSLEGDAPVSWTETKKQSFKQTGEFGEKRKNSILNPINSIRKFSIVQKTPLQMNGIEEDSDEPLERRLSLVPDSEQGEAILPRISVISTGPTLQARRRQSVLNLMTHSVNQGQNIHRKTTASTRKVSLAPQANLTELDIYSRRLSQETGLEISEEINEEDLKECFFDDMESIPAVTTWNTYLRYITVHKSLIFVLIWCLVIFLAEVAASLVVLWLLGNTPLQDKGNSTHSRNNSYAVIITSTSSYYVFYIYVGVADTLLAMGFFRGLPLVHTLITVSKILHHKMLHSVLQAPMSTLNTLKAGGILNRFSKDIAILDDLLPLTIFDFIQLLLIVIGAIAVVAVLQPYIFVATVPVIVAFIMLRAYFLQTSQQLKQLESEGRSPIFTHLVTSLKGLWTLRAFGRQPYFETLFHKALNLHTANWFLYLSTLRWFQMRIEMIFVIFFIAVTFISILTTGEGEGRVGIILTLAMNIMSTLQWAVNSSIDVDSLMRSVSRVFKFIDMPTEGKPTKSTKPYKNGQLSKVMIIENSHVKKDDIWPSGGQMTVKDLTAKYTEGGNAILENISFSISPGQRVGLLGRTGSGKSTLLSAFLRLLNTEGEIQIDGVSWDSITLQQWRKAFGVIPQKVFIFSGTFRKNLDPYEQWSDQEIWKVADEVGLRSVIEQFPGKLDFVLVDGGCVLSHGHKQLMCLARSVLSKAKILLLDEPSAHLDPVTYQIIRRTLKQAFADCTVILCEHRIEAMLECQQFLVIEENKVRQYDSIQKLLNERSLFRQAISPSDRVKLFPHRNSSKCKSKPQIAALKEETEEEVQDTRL

As a reminder, the EC50 is the concentration at which the effect is half-maximal. Regarding `Cc1cccc(C)c1-c1cc2nc(n1)NS(=O)(=O)c1cccc(c1)C(=O)N(Cc1ncc(OC3CCC3)cn1)[C@H](CC1CCC1)CO2` [Compound 1426], where the note is “HBE assay, read-out: HBE EC50”, the EC50 is less than 1 µM. Moreover, the Emax under setting [1] is more than 60%.
With `COCC1(CNc2cncc(CN3C(=O)c4cccc(c4)S(=O)(=O)Nc4nc(cc(-c5c(C)cccc5C)n4)OC[C@H]3CC(C)(C)C)n2)CC1` [Compound 1484], the activation at 10 µM under setting [2] is more than 60%.
`COC[C@H]1COCCN1c1cccc(CN2C(=O)c3cccc(c3)S(=O)(=O)Nc3nc(cc(-c4c(C)cccc4C)n3)OC[C@H]2CC(C)(C)C)n1` [Compound 1399]: the activation at 10 µM under setting [2] was more than 60%.
Regarding `Cc1cccc(C)c1-c1cc2nc(n1)NS(=O)(=O)c1cccc(c1)C(=O)N(CC1CN(CC(C)(C)C)CCO1)[C@H](CC(C)(C)C)CO2` (stereo partly drawn) [Compound 712], under “Table 11, read-out: HBE EC50”, the EC50 was less than 1 µM. Also, the Emax under setting [3] was more than 60%.
Take `COCCN(C)c1ccnc(CN2C(=O)c3cccc(c3)S(=O)(=O)Nc3nc(cc(-c4c(C)cccc4C)n3)OC[C@H]2CC(C)(C)C)n1` [Compound 657]: under “Table 11, read-out: HBE EC50”, the concentration for a half-maximal effect (EC50) is less than 1 µM. Further, the Emax under setting [3] is more than 60%.
As to `Cc1cccc(C)c1-c1cc2nc(n1)NS(=O)(=O)c1cccc(c1)C(=O)N(Cc1ncc(O[C@@H](C)C(C)C)cn1)[C@H](CC1CC1)CO2` [Compound 1455], the EC50 (HBE assay, read-out: HBE EC50) is less than 1 µM. Besides, the Emax under setting [1] was more than 60%.
As to `COC[C@@H]1COCCN1c1cccc(CN2C(=O)c3cccc(c3)S(=O)(=O)Nc3nc(cc(-c4c(C)cccc4C)n3)OC[C@H]2CC(C)(C)C)n1` [Compound 1435], under setting [2], the activation at 10 µM is more than 60%.
Take `Cc1cccc(C)c1-c1cc2nc(n1)NS(=O)(=O)c1cccc(c1)C(=O)N(Cc1ccc(N3CCC(C)(C)C3)cn1)[C@H](CC(C)(C)C)CO2` [Compound 609]: the EC50 (Table 11, read-out: HBE EC50) was in the range of 1 to 3 µM. Moreover, the Emax under setting [3] is more than 60%.
Turning to `Cc1cccc(C)c1-c1cc2nc(n1)NS(=O)(=O)c1cccc(c1)C(=O)N(Cc1ncc(N3CC4CC3CO4)cn1)[C@H](CC(C)(C)C)CO2` (stereo partly drawn) [Compound 545], for the setting “Table 12, read-out: HBE EC50”, the EC50 is less than 1 µM. Under setting [4], the Emax is more than 60%.
As to `Cc1cccc(C)c1-c1cc2nc(n1)NS(=O)(=O)c1cccc(c1)C(=O)N(Cc1cncc(N3CCC(C)(C)C3)c1)[C@H](CC(C)(C)C)CO2` [Compound 285], for the setting “Table 12, read-out: HBE EC50”, the EC50 was less than 1 µM. Further, the Emax under setting [4] is more than 60%.
For the compound `Cc1cccc(C)c1-c1cc2nc(n1)NS(=O)(=O)c1cccc(c1)C(=O)N(Cc1ncc(Cl)cc1F)[C@H](CC(C)(C)C)CO2` [Compound 1111], the EC50 (Table 13, read-out: HBE EC50) is less than 1 µM. Under setting [5], the Emax was more than 60%.
On to `Cc1cccc(C)c1-c1cc2nc(n1)NS(=O)(=O)c1cccc(c1)C(=O)N(Cc1cncc(N3CC(C(=O)O)C(C(C)C)C3)n1)[C@H](CC(C)(C)C)CO2` (stereo partly drawn) [Compound 263], for which, under setting [6], the activation at 10 µM fell in the range of 30 to 60%.
Same read-out and setting: under `Cc1cccc(C)c1-c1cc2nc(n1)NS(=O)(=O)c1cccc(c1)C(=O)N(Cc1ncc(OC(=O)OC(C)(C)C)cn1)[C@H](CC(C)(C)C)CO2` [Compound 557] stands more than 600%.
As for `Cc1cccc(C)c1-c1cc2nc(n1)NS(=O)(=O)c1cccc(c1)C(=O)N(Cc1ncc(N3CC4(CCOC4)C3)cn1)[C@H](CC(C)(C)C)CO2` [Compound 1054], the EC50 (Table 13, read-out: HBE EC50) is less than 1 µM. Besides, under setting [5], the Emax is more than 60%.
With `Cc1cccc(C)c1-c1cc2nc(n1)NS(=O)(=O)c1cccc(c1)C(=O)N(Cc1ncc(N3CC4(CC4)C3)cn1)[C@H](CC(C)(C)C)CO2` [Compound 622], under “Table 11, read-out: HBE EC50”, the EC50 was 1 to 3 µM. Moreover, the Emax under setting [3] is more than 60%.
Regarding `CC(C)c1cccc(C(C)C)c1-c1cc2nc(n1)NS(=O)(=O)c1cccc(c1)C(=O)N(Cc1ncc(N3CCOCC3)cn1)[C@H](CC(C)(C)C)CO2` [Compound 830], under setting [7], the Emax is more than 60%.
As to `Cc1cccc(C)c1-c1cc2nc(n1)NS(=O)(=O)c1cccc(c1)C(=O)N(CC(=O)NC1CC3(CCC3)C1)[C@H](CC(C)(C)C)CO2` [Compound 171], under setting [8], the activation at 10 µM is more than 600%.
For `Cc1cccc(C)c1-c1cc2nc(n1)NS(=O)(=O)c1cccc(c1)C(=O)N(Cc1cnn(CC(C)C)c1)[C@H](CC(C)(C)C)CO2` [Compound 487], the Emax under setting [7] is more than 60%.
As for `Cc1cccc(C)c1-c1cc2nc(n1)NS(=O)(=O)c1cccc(c1)C(=O)N(CC1CCN(c3ccccn3)CC1)[C@H](CC(C)(C)C)CO2` [Compound 493], under “Table 10, read-out: HBE EC50”, the EC50 is less than 1 µM. In addition, the Emax under setting [7] was more than 60%.
In the case of `Cc1cccc(C)c1-c1cc2nc(n1)NS(=O)(=O)c1cccc(c1)C(=O)N(Cc1cnc3ccccn13)[C@H](CC(C)(C)C)CO2` [Compound 879], the activation at 10 µM under setting [6] was more than 600%.
Regarding `Cc1cccc(C)c1-c1cc2nc(n1)NS(=O)(=O)c1cccc(c1)C(=O)N(CC(=O)NC1CCOCC1)[C@H](CC(C)(C)C)CO2` [Compound 189], under setting [8], the activation at 10 µM was more than 600%.
On to `Cc1cccc(C)c1-c1cc2nc(n1)NS(=O)(=O)c1cccc(c1)C(=O)N(Cc1ccccn1)[C@H](CC(C)(C)C)CO2` [Compound 381], for which, under setting [7], the Emax was more than 60%.
Regarding `Cc1cccc(C)c1-c1cc2nc(n1)NS(=O)(=O)c1cccc(c1)C(=O)N(Cc1nccc(C(C)C)n1)[C@H](CC(C)(C)C)CO2` [Compound 121, (11R)-6-(2,6-Dimethylphenyl)-11-(2,2-dimethylpropyl)-12-[(4-isopropylpyrimidin-2-yl)methyl]-2,2-dioxo-9-oxa-2λ^6-thia-3,5,12,19-tetrazatricyclo[12.3.1.14,8]nonadeca-1(18),4(19),5,7,14,16-hexaen-13-one], the EC50 (Table 11, read-out: HBE EC50) is less than 1 µM. In addition, the Emax under setting [3] was more than 60%.
With `CO[C@@H]1CCN(c2cnc(CN3C(=O)c4cccc(c4)S(=O)(=O)Nc4nc(cc(-c5c(C)cccc5C)n4)OC[C@H]3CC(C)(C)C)nc2)C1` [Compound 623], the EC50 (Table 11, read-out: HBE EC50) is less than 1 µM. Besides, the Emax under setting [3] was more than 60%.
Take `CCN(c1cccc(CN2C(=O)c3cccc(c3)S(=O)(=O)Nc3nc(cc(-c4c(C)cccc4C)n3)OC[C@H]2CC(C)(C)C)n1)C(C)C` [Compound 131, (11R)-6-(2,6-Dimethylphenyl)-11-(2,2-dimethylpropyl)-12-({6-[ethyl(propan-2-yl)amino]pyridin-2-yl}methyl)-9-oxa-2λ^6-thia-3,5,12,19-tetraazatricyclo[12.3.1.14,8]nonadeca-1(17),4,6,8(19),14(18),15-hexaene-2,2,13-trione]: the EC50 (Table 11, read-out: HBE EC50) was less than 1 µM. In addition, the Emax (read-out: HBE Max activity (%)) was more than 60%.
On to `Cc1cccc(C)c1-c1cc2nc(n1)NS(=O)(=O)c1cccc(c1)C(=O)N(Cc1ncc(OC3CC(C)(C)C3)cn1)[C@H](CC(C)C)CO2` [Compound 1423], for which, under “HBE assay, read-out: HBE EC50”, the EC50 lay in the range of 1 to 3 µM. In addition, under setting [1], the Emax was more than 60%.
With `CCOc1cnc(CN2C(=O)c3cccc(c3)S(=O)(=O)Nc3nc(cc(-c4c(C)cccc4C)n3)OC[C@H]2CCC(C)(C)C)nc1` [Compound 1488], the EC50 (HBE assay, read-out: HBE EC50) is less than 1 µM. Further, the Emax under setting [1] was more than 60%.
For `Cc1cccc(C)c1-c1cc2nc(n1)NS(=O)(=O)c1cccc(c1)C(=O)N(Cc1ncc(N3CC4(CCOCC4)C3)cn1)[C@H](CC(C)(C)C)CO2` [Compound 866], the EC50 (Table 13, read-out: HBE EC50) was less than 1 µM. In addition, the Emax under setting [5] was more than 60%.
Take `Cc1cccc(C)c1-c1cc2nc(n1)NS(=O)(=O)c1cccc(c1)C(=O)N(Cc1ccnc(N3CCC[C@H]3C(C)C)n1)[C@H](CC(C)(C)C)CO2` [Compound 1475]: the EC50 (HBE assay, read-out: HBE EC50) was less than 1 µM. The Emax under setting [1] was more than 60%.
Consider `Cc1cccc(C)c1-c1cc2nc(n1)NS(=O)(=O)c1cccc(c1)C(=O)N(Cc1ncc(N3CCC(C)(C)C3)cn1)[C@H](CC(C)C)CO2` [Compound 606], for which the EC50 (Table 11, read-out: HBE EC50) was less than 1 µM. The Emax under setting [3] was more than 60%.
For the compound `Cc1cccc(C)c1-c1cc2nc(n1)NS(=O)(=O)c1cccc(c1)C(=O)N(Cc1ccc(N3CCC(C)(C)C3)nn1)[C@H](CC(C)(C)C)CO2` [Compound 238], the half-maximal effective concentration (EC50) (Table 12, read-out: HBE EC50) is less than 1 µM. Under setting [4], the Emax is 30 to 60%.
For `Cc1cccc(C(C)C)c1-c1cc2nc(n1)NS(=O)(=O)c1cccc(c1)C(=O)N(Cc1cnc(C3CCOCC3)cn1)[C@H](CC(C)C)CO2` [Compound 242], the activation at 10 µM under setting [6] was more than 600%.
Turning to `Cc1cccc(C)c1-c1cc2nc(n1)NS(=O)(=O)c1cccc(c1)C(=O)N(Cc1ncc(OC3CC3)cn1)[C@H](CC(C)(C)C)CO2` [Compound 1129], the EC50 (Table 13, read-out: HBE EC50) was less than 1 µM. Further, under setting [5], the Emax was more than 60%.
Turning to `COc1cccc(C)c1-c1cc2nc(n1)NS(=O)(=O)c1cccc(c1)C(=O)N(Cc1cccc(N3CCCC3C)n1)[C@H](CC(C)(C)C)CO2` (stereo partly drawn) [Compound 578], the activation at 10 µM under setting [6] is less than 30%.
As for `Cc1cccc(C)c1-c1cc2nc(n1)NS(=O)(=O)c1cccc(c1)C(=O)N(Cc1cccc(C3CCCCO3)n1)[C@H](CC(C)(C)C)CO2` (stereo partly drawn) [Compound 604], the EC50 (Table 12, read-out: HBE EC50) is less than 1 µM. For the same compound, the Emax under setting [4] is more than 60%.
With `Cc1cccc(C)c1-c1cc2nc(n1)NS(=O)(=O)c1cccc(c1)C(=O)N(Cc1cccc(N3CCC[C@H]3C3CC3)n1)[C@H](CC(C)(C)C)CO2` [Compound 1497], the EC50 (HBE EC50 (μM), HBE assay) was less than 1 µM. The Emax (read-out: HBE Max activity (%)) was more than 60%.
`CNc1cccc(CN2C(=O)c3cccc(c3)S(=O)(=O)Nc3nc(cc(-c4c(C)cccc4C)n3)OC[C@H]2CC(C)(C)C)n1` [Compound 490]: the activation at 10 µM (Table 10, at 10 μM, read-out: HBE activity at 10 (μM) (%)) is more than 60%. The EC50 (Table 10, read-out: HBE EC50) was less than 1 µM. Moreover, under setting [7], the Emax was more than 60%.
As for `Cc1cccc(C)c1-c1cc2nc(n1)NS(=O)(=O)c1cccc(c1)C(=O)N(Cc1ncc(N3CCC4(CC4)C3)cn1)[C@H](CC(C)(C)C)CO2` [Compound 1504], under setting [2], the activation at 10 µM was more than 60%.
